The target in series [1] is T1, zebrafish Mate3 (Danio rerio, UniProt A1L1P9).
T1 sequence (A1L1P9 1-590): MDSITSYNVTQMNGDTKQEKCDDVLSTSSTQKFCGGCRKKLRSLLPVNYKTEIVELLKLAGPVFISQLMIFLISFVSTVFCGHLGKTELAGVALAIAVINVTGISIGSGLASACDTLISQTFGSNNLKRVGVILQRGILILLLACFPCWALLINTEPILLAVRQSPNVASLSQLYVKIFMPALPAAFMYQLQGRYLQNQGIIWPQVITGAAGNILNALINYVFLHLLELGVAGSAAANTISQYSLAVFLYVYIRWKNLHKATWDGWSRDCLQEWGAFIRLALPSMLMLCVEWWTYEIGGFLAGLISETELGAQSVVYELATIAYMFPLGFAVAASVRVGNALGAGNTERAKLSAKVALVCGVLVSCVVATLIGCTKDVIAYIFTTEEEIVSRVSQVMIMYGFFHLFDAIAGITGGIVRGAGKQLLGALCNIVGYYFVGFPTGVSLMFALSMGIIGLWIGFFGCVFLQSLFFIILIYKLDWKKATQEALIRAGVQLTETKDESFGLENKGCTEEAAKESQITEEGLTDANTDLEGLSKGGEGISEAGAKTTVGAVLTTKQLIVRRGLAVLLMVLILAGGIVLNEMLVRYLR
As to the kind of experiment: DAPI inhibition assay, Mate3. It is filed as cell-based. The arrangement: expressed in transfected cells; host or cells: HEK293T. The conditions noted are these: for interaction with DAPI uptake (in words): Mate3, co-incubation with modulator (50 μM–2 mM), Fig. 5. How it is done:
(§1) HEK293T cells were transiently transfected as described previously[31] using the PEI (polyethyleneimine) reagent in 48-well plates. Cells were in parallel transfected with pcDNA3.1/His/LacZ plasmid and transfection efficiency was evaluated 24 h after transfection with the LacZ staining protocol.
(§2) HEK293T cells overexpressing respective single zebrafish Mate transporter were used for further experiments. […] DAPI fluorescence was measured at 360 and 460 nm […], respectively. The uptake into vector-transfected HEK293T cells (mock cells) was subtracted to obtain transporter-specific uptake.
(§3) Inhibition assays using DAPI as a fluorescent substrate were performed in the same transport medium. […] Compounds tested for interaction were checked using at least four concentrations but only a representative concentration (with the highest response or the largest concentration in solubility range) is shown.
(§4) For the purpose of IC50 calculations, data were fitted to the sigmoidal four-parameter dose-response model (variable slope),

In series [2] the target is zebrafish Mate4 (Danio rerio, UniProt U3Q0C3). In words: DAPI inhibition assay, Mate4. The following applies: for interaction with DAPI uptake (in words): co-incubation with modulator (50 μM–2 mM), Fig. 5. It is filed as cell-based. Here is the method: as §1, §2, §3, §4
Series [3] addresses zebrafish Mate7 (Danio rerio, UniProt U3PTD6). In words: DAPI inhibition assay, Mate7. The following applies: for interaction with DAPI uptake (in words): co-incubation with modulator (50 μM–2 mM), Fig. 5; for interaction strength: class by IC50 of DAPI uptake inhibition. It is filed as cell-based. How it is done: as §1, §2, §3, §4
Series [4] concerns the target zebrafish Mate6 (Danio rerio, UniProt A1L2E7). As to the kind of experiment: DAPI inhibition assay, Mate6. It is filed as cell-based. The following applies: for interaction with DAPI uptake (in words): co-incubation with modulator (50 μM–2 mM), Fig. 5; for interaction strength: class by IC50 of DAPI uptake inhibition. Here is the method: as §1, §2, §3, §4
In series [5] the target is zebrafish Mate8 (Danio rerio, UniProt A0A8M6YZ09). In words: DAPI inhibition assay, Mate8. The series is classed as cell-based. The conditions noted are these: for interaction strength: class by IC50 of DAPI uptake inhibition; for interaction with DAPI uptake (in words): co-incubation with modulator (50 μM–2 mM), Fig. 5. Here is the method:
as §1, §2, §3, §4

Series [6] deals with CC[n+]1c(-c2ccccc2)c2cc(N)ccc2c2ccc(N)cc21. In words: cells, lysate or membranes. The conditions noted are these: dye uptake, HEK293T, mean ± SD.
Substrate in series [7]: CN(C)c1ccc(/C=C/c2cc[n+](C)cc2)cc1
As to the kind of experiment: cells, lysate or membranes. The following applies: other: Mate4; dye uptake, HEK293T; mean ± SD; NT = no transport found.

Substrate in series [8]: COC(=O)c1ccccc1-c1c2ccc(=N)cc-2oc2cc(N)ccc12
As to the kind of experiment: cells, lysate or membranes. The following applies: other: Mate4; dye uptake, HEK293T; mean ± SD; NT = no transport found.

Setting [9] is: other: Mate4, NT = no transport found.
Where [10] appears, read: other: Mate8, NT = no transport found.
Where [11] appears, read: Mate4, inhibition of DAPI (1 μM) uptake, n = 3, NE = no effect in the compound solubility range, read-out: IC50.
The mark [12] stands for this setting: Mate7, inhibition of DAPI (2.5 μM) uptake, n = 3, NE = no effect in the compound solubility range, read-out: IC50.

Results on 15 molecules are retold here after article PMC4928094, “The first characterization of multidrug and toxin extrusion (MATE/SLC47) proteins in zebrafish (Danio rerio)” (Scientific Reports, 2016).

Usually IC50 stands for the concentration at which inhibition is half-maximal. Broadly, the Km is the substrate concentration at which the rate is half of its maximum.

Structures can show the parent of a compound that is named as a salt. Where two headings read alike, the source gives them in different places.

Chain of zebrafish Mate8 (A0A8M6YZ09 entry or part of it): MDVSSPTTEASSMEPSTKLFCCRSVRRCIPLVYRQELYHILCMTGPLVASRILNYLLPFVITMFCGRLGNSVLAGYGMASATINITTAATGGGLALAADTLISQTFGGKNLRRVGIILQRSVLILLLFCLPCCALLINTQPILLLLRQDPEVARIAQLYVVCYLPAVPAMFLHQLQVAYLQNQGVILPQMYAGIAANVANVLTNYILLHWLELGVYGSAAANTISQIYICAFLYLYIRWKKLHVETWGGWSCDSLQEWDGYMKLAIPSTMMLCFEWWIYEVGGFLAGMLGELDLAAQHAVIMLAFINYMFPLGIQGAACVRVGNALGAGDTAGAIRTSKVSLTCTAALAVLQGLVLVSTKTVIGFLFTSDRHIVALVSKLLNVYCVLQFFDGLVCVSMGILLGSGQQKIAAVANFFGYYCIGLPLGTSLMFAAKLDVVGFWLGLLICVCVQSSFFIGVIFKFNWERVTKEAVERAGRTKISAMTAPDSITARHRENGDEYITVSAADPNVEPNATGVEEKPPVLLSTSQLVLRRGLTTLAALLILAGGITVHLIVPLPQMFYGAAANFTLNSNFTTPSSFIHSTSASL
Chain of zebrafish Mate6 (A1L2E7 entry or part of it): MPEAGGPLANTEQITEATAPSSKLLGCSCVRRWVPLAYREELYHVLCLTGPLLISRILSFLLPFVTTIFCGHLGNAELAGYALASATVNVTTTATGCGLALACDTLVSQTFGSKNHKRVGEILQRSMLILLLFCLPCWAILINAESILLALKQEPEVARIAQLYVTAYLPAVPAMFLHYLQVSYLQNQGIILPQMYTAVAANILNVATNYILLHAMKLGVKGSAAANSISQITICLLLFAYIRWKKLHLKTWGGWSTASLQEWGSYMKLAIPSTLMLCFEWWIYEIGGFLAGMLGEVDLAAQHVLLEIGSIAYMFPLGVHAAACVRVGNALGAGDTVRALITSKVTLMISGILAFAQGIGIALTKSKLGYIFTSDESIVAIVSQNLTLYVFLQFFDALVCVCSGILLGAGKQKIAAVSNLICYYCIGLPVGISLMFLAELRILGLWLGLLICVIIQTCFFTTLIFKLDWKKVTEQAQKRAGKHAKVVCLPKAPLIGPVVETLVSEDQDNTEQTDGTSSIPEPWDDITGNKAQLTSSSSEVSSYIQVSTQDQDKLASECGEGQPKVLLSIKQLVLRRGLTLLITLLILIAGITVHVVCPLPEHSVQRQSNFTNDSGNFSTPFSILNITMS
Chain of zebrafish Mate7 (U3PTD6 entry or part of it): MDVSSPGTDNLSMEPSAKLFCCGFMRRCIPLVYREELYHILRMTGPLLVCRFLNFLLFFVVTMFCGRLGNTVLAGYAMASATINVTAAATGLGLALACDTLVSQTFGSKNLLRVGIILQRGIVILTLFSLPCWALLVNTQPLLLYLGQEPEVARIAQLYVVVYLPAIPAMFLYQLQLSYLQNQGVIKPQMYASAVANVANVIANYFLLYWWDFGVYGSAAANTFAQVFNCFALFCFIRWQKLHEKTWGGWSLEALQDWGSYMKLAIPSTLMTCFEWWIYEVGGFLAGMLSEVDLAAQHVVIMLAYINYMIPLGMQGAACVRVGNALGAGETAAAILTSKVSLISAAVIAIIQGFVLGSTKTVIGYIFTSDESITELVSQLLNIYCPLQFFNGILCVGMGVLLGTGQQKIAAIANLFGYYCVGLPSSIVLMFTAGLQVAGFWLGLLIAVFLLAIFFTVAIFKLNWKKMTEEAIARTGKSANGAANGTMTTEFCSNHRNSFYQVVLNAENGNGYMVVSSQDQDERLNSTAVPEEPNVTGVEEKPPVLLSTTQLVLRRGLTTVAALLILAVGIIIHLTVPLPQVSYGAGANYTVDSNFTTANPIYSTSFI

`C=C[C@H]1C[N@@]2CC[C@H]1C[C@@H]2[C@@H](O)c1ccnc2ccc(OC)cc12` [Quinidine, quinidine, reference compound]: the IC50 in series [1] (read-out: IC50) came out at 58.4 µM.

For the molecule `C[n+]1ccc(-c2cc[n+](C)cc2)cc1` [Paraquat, paraquat, reference compound], the IC50 is 462 µM in series [2], 5730 µM in series [4] and 6290 µM in series [5]. In addition, the “interaction with DAPI uptake (in words)” value in series [3] (Mate7) is reported as “too weak to determine the IC50”. The interaction strength entry in series [5] (Mate8) was “very weak (substances with IC50 above 1000 μM were considered very weak interactors)”.

For the molecule zebrafish Mate7 (Danio rerio), in series [6] (other: Mate7), the Km is 0.79 ± 0.19 µM and the Vmax came to 26.3 ± 1.82 pmol/mg protein/min.

Take `CN(C)C(=N)N=C(N)N` [metformin, reference compound]: the “interaction with DAPI uptake (in words)” value in series [2] (Mate4), in series [3] (Mate7), in series [4] (Mate6) and in series [5] (Mate8) was “did not interact” in each case.

For zebrafish Mate4 (Danio rerio), in series [6] (setting [9]), the Km was found to be 0.45 ± 0.08 µM and the Vmax was determined as 37.4 ± 2.02 pmol/mg protein/min.

As for zebrafish Mate8 (Danio rerio), in series [6] (setting [10]), the Km was found to be 0.85 ± 0.12 µM and the Vmax came out at 17.0 ± 0.59 pmol/mg protein/min.

In the case of `C[C@]12CCC(=O)C=C1CC[C@@H]1[C@@H]2CC[C@]2(C)C(=O)CC[C@@H]12` [Androstenedione, androstenedione], the IC50 in series [2] is 114 µM; in series [3], 14.9 µM; in series [4], 25.3 µM; in series [5], 20.1 µM. The interaction strength result in series [3] (Mate7) and in series [5] (Mate8) was “strong (Compounds with IC50 of 1–29 μM were designated as strong interactors)” each time.

In the case of `C[C@]12CC[C@H](OS(=O)(=O)O)CC1=CC[C@@H]1[C@@H]2CC[C@]2(C)C(=O)CC[C@@H]12` [DHEAS, dehydroepiandrosterone sulfate], the IC50 in series [2] (setting [11]) came to 313 µM; in series [3] (setting [12]), 60.2 µM; in series [4] (Mate6, inhibition of DAPI (1 μM) uptake, n = 3, NE = no effect in the compound solubility range, read-out: IC50), 39.1 µM; in series [5] (Mate8, inhibition of DAPI (1 μM) uptake, n = 3, NE = no effect in the compound solubility range, read-out: IC50) it was 26.9 µM. For the same molecule, the values for the interaction strength entry in series [3] (Mate7), in series [4] (Mate6) and in series [5] (Mate8) were “moderate (IC50 of 30–99 μM indicated moderate interaction)”, “moderate (IC50 of 30–99 μM indicated moderate interaction)” and “strong (Compounds with IC50 of 1–29 μM were designated as strong interactors)”, respectively.

As to `C[C@]12C[C@H](O)[C@H]3[C@@H](CCC4=CC(=O)CC[C@@]43C)[C@@H]1CC[C@@H]2C(=O)CO` [Corticosterone, corticosterone], the half-maximal inhibitory concentration (IC50) in series [2] stood at 238 µM; in series [3], 99.6 µM; in series [4], 99.3 µM; in series [5], 22.1 µM. Besides, the interaction strength result in series [3] (Mate7) is “weak (IC50 of 100–999 μM was classified as weak interaction)”; in series [4] (Mate6), “moderate (IC50 of 30–99 μM indicated moderate interaction)”; in series [5] (Mate8), “strong (Compounds with IC50 of 1–29 μM were designated as strong interactors)”.

In the case of `CN1CC(=O)NC1=N` [creatinine], the “interaction with DAPI uptake (in words)” value in series [1], in series [2] (Mate4), in series [3] (Mate7), in series [4] (Mate6) and in series [5] (Mate8) was “did not interact” in each case.

As for `C[C@H](CCC(=O)O)[C@H]1CC[C@H]2[C@@H]3CC[C@@H]4C[C@H](O)CC[C@]4(C)[C@H]3C[C@H](O)[C@]12C` [Deoxycholate, deoxycholate], the IC50 in series [3] came to 203 µM; in series [5] it was 274 µM. In addition, the interaction strength entry in series [3] (Mate7) and in series [5] (Mate8) was “weak (IC50 of 100–999 μM was classified as weak interaction)” each time.

For `C[C@]12CC[C@H]3[C@@H](CCC4=CC(=O)CC[C@@]43C)[C@@H]1CC[C@@H]2O` [Testosterone, testosterone], the IC50 in series [1] turned out to be 669 µM; in series [2], 651 µM; in series [3] it was 42 µM; in series [4], 39 µM; in series [5], 50.5 µM. In addition, the “interaction with DAPI uptake (in words)” value in series [1], in series [2] (Mate4), in series [3] (Mate7), in series [4] (Mate6) and in series [5] (Mate8) was “inhibited” each time. Further, the interaction strength result in series [3] (Mate7), in series [4] (Mate6) and in series [5] (Mate8) was “moderate (IC50 of 30–99 μM indicated moderate interaction)” in each case.

Turning to zebrafish Mate6 (Danio rerio), in series [6] (other: Mate6), the Km worked out at 2.98 ± 0.18 µM and the Vmax amounted to 504 ± 9.79 pmol/mg protein/min.

In the case of `CC[N+](CC)(CC)CC` [TEA, tetraethylammonium, reference compound], the “interaction with DAPI uptake (in words)” value is “did not interact” in series [1] and “not inhibited” in series [5] (Mate8). Also, the values for the IC50 in series [2] (setting [11]) and in series [3] (setting [12]) were 5240 µM and 3310 µM, respectively.

B1: zebrafish Mate4 (Danio rerio) (protein)
chain: MEMNSIHTEDHINGYQKEEKVEDAQLTSRSICAECLRKLRRLLPVNYKEEVMQLLKLAGPVFISQLMIFLISFVSTVFCGHLGKTELAGVALAIAVINVTGISIGSGLASACDTLISQTFGSNNLKRVGVILQRGILILLLACFPCWALLINTEPILLAVRQSPNVASLSQLYVKIFMPALPATFMYQLQGLYLQNQGIIWPQVITGAAGNILNALINYVFLYLLDLGVPGSAAANAISQYSLAVILYTYIRCMGLHKATWDGWSWDCLQEWGSFIRLALPSMLMLCAEWWTYEIGGFLAGLISEVELGAQSIVYELASVMYMFPLGFAVAAGVRVGNALGAGNTEQAKLSAKVSLVCGLLVSSVIAVVIAGTNNIIGYIFSKDEDIVLRVSQVMVMYGFVHLFDATSAITGGIVRGAGKQQIGALCNMVGYYCVGFPIGVSLMFAFNMGIVGLWIGFFTCVFLQSLFFIILIYRLDWKKATQEALIRAGVQLTEIKYESFGLENKGCTEEAAQENTEEGQTDTNTDLEGLSKGEGGITDAVALVTVGEVLTAKQLAVRRGLAFFFMLLILTGGIVLNEVLIRFVI
In the case of B1, the results for the Km in series [7] and in series [8] were 4.49 ± 0.63 µM and 0.32 ± 0.03 µM, respectively. The Vmax in series [7] is reported as 23.6 ± 1.23 pmol/mg protein/min.
